From ChEMBL document CHEMBL3046502, “In vitro antimicrobial and antitubercular studies of novel 6-substituted (pyrrolidin-1-yl)-2(1H)-pyridinones” (2012)
Converted amounts (≈) assume the structure as drawn.

How the values were obtained:
Type in all cases: functional
Staphylococcus aureus = test: Antimicrobial activity against Staphylococcus aureus MTCC 96 by broth microdilution method
Aspergillus niger = test: Antimicrobial activity against Aspergillus niger MTCC 282
Escherichia coli = test: Antimicrobial activity against Escherichia coli MTCC 442 by broth microdilution method
Pseudomonas aeruginosa = test: Antimicrobial activity against Pseudomonas aeruginosa MTCC 2488 by broth microdilution method
Streptococcus pyogenes = test: Antimicrobial activity against Streptococcus pyogenes MTCC 443 by broth microdilution method
Candida albicans = test: Antimicrobial activity against Candida albicans MTCC 227
Aspergillus clavatus = test: Antimicrobial activity against Aspergillus clavatus MTCC 1323
[1] = system: Mycobacterium tuberculosis; test: Antimicrobial activity against Mycobacterium tuberculosis H37Rv; conditions: for MIC: Mycobacterium tuberculosis, H37Rv

| SMILES | MIC (Staphylococcus aureus) | MIC (Aspergillus niger) | MIC (Escherichia coli) | MIC (Pseudomonas aeruginosa) | MIC (Streptococcus pyogenes) | MIC (Candida albicans) | MIC (Aspergillus clavatus) | inhibition (INH) [1] | MIC [1] |
| --- | --- | --- | --- | --- | --- | --- | --- | --- | --- |
| COc1ccc(-c2cc(N3CCCC3)n(-c3cccc(Cl)c3)c(=O)c2/N=N/c2ccc(Cl)c(Cl)c2)cc1 | 200 µg/mL (≈ 361 µM) | 500 µg/mL (≈ 903 µM) | 62.5 µg/mL (≈ 113 µM) | 200 µg/mL (≈ 361 µM) | 500 µg/mL (≈ 903 µM) | 100 µg/mL (≈ 181 µM) | 1000 µg/mL (≈ 1810 µM) | 99% | 250 µg/mL (≈ 451 µM) |
| COc1ccc(-c2cc(N3CCCC3)n(-c3cccc(Cl)c3)c(=O)c2)cc1 | 500 µg/mL (≈ 1310 µM) | 1000 µg/mL (≈ 2630 µM) | 250 µg/mL (≈ 656 µM) | 500 µg/mL (≈ 1310 µM) | 500 µg/mL (≈ 1310 µM) | 1000 µg/mL (≈ 2630 µM) | 1000 µg/mL (≈ 2630 µM) | 99% | 500 µg/mL (≈ 1310 µM) |
